“Also recorded” adds a separate entry of the source.
What was measured:
[1] = tested on: Buchnera; assay: qPCR of Buchnera/aphid DNA copy numbers (symbiont titer); assay type: in vivo, Buchnera aphidicola; conditions: 10 or 100 uM pantothenol, through plants; 8 days
Method: (§1) After 7 days of treatment, DNA was extracted from multiple aphids from each treatment group. Briefly, the aphid body surface was sterilized by dipping the aphid into a 6% bleach solution for approximately 5 seconds. Aphids were then rinsed in sterile water and DNA was extracted from each individual aphid using a DNA extraction kit (Qiagen, DNeasy kit) according to manufacturer's instructions. DNA concentration was measured using a nanodrop nucleic acid quantification, and Buchnera and aphid DNA copy numbers were measured by qPCR.
After 6 days of treatment, DNA was extracted from multiple aphids from each treatment group and qPCR for quantifying Buchnera levels was done as described in the previous Example.
as §1, with “8” for “7”
as §1, with “After 8” for “After 7”, “from the remaining” for “from multiple”, “aphids in” for “aphids from”
as §1, with “Briefly,” for “After 7 days of treatment, DNA was extracted from multiple aphids from each treatment group. Briefly,”
as §1, with “Briefly,” for “After 7 days of treatment, DNA was extracted from multiple aphids from each treatment group. Briefly,”
as §1, with “3” for “7”, “the remaining living” for “multiple”
as §1, with “After 5” for “After 7”, “from the remaining” for “from multiple”, “aphids in” for “aphids from”
At 5 days post-treatment, DNA was extracted from several aphids in each treatment group. Briefly, the aphid body surface was sterilized by dipping the aphid into a 6% bleach solution for approximately 5 seconds.

[2] = tested on: Acyrthosiphon pisum aphids; assay: Aphid survival monitoring; assay type: in vivo
Text: For each treatment, 33 aphids were placed onto each leaf. Artificial diet feeding systems were changed every 2-3 days throughout the experiment. Aphids were monitored daily for survival and dead aphids were removed from the deep petri dish housing the artificial feeding system when they were discovered.
Each treatment group received approximately the same number of individuals from each of the collection plant. For each treatment, 20 aphids were placed onto each leaf. Aphids were monitored daily for survival and dead aphids were removed when they were discovered. In addition, the developmental stage (1st, 2nd, 3rd, 4th, 5th instar, and 5R, representing a reproducing 5th instar) was determined daily throughout the experiment. Pictures of aphids were taken throughout the experiment to evaluate size differences between treatment groups.
(Vroma vicia faba from Johnny's Selected Seeds) in a climate-controlled incubator (16 h light/8 h dark photoperiod; 60±5% RH; 25±2° C.). Prior to being used for aphid rearing, fava bean plants were grown in potting soil at 24° C. with 16 h of light and 8 h of darkness. To limit maternal effects or health differences between plants, 5-10 adults from different plants were distributed among 10 two-week-old plants, and allowed to multiply to high density for 5-7 days. For experiments, first and second instar aphids were collected from healthy plants and divided into 2 different treatment groups: 1) negative control (leaf injected with water plus blue food coloring) and 2) leaf injected with 50 μg/ml rifampicin in water plus blue food coloring. Each treatment group received approximately the same number of individuals from each of the collection plants. For treatment, rifampicin stock solution (25 mg/ml in 100% methanol) was diluted to 50 μg/ml in water plus blue food coloring. The solution was then placed into a 1.5 ml Eppendorf tube with a fava bean stem perfused with the solutions and the opening of the tube was closed using parafilm. This feeding system was then placed into a deep petri dish (Fisher Scientific, Cat# FB0875711) and aphids were applied to the leaves of the plant. For each treatment, 74-81 aphids were placed onto each leaf. The feeding systems were changed every 2-3 days throughout the experiment. Aphids were monitored daily for survival and dead aphids were removed from the deep petri dish when they were discovered. In addition, the developmental stage (1st, 2nd, 3rd, 4th, 5th and 5R (5th that has reproduced) instar) was determined daily throughout the experiment.
For each treatment, 49-50 aphids were placed onto each leaf. The feeding systems were changed every 2-3 days throughout the experiment. Aphids were monitored daily for survival and dead aphids were removed from the deep petri dish when they were discovered.
For each treatment, 76-80 aphids were placed onto each leaf. The feeding systems were changed every 2-3 days throughout the experiment. Aphids were monitored daily for survival and dead aphids were removed from the deep petri dish when they were discovered.
For each treatment, 50-51 aphids were placed onto each leaf. The feeding systems were changed every 2-3 days throughout the experiment. Aphids were monitored daily for survival and dead aphids were removed from the deep petri dish when they were discovered.
For each treatment, 56-59 aphids were placed onto each leaf. The feeding systems were changed every 2-3 days throughout the experiment. Aphids were monitored daily for survival and dead aphids were removed from the deep petri dish when they were discovered.
For each treatment, 57-59 aphids were placed onto each leaf. The feeding systems were changed every 2-3 days throughout the experiment. Aphids were monitored daily for survival and dead aphids were removed from the deep petri dish when they were discovered.
For each treatment, 15-87 aphids were placed onto each leaf. Artificial diet feeding systems were changed every 2-3 days throughout the experiment.

SMILES: CC(C)(CO)[C@@H](O)C(=O)NCCCO [pantothenol]
- Buchnera/aphid DNA copies [1]: did not affect endosymbiotic Buchnera; also recorded: high ratios of Buchnera/aphid DNA copies
- Aphid survival / mortality ([2]; 10 or 100 uM pantothenol, through plants): increased aphid mortality; also recorded: negatively affected aphid fitness
- Aphid survival rate ([2]; leaf coating, 10 uM pantothenol): resulted in aphid death; also recorded: lower survival rates than aphids placed on coated leaves with the control solution

Reference: patent US20190387748A1, “COMPOSITIONS AND RELATED METHODS FOR AGRICULTURE” (priority 2017, published 2019)
